The record followed here is patent US11472791B2 (Incyte Corporation, priority 2019, dated 2022).

The target in the assay is CDK2/Cyclin E1 (Homo sapiens (Human), UniProt P24941). The assay is described as follows: CDK2/Cyclin E1 HTRF enzyme activity assay. As to conditions: 1 mM ATP. Format: biochemical. How it is done: Assays are conducted in white 384-well polystyrene plates in a final reaction volume of 8 μL. […] HTRF signals are read after 1 hour at room temperature on a PHERAstar FS plate reader (BMG Labtech). Data is analyzed with IDBS XLFit and GraphPad Prism 5.0 software using a three or four parameter dose response curve to determine IC50 for each compound.
(In TR-FRET formats the signal depends on donor and acceptor labels being close together.)
The IC50 is the midpoint of a concentration-inhibition curve. Regarding `CO[C@H]1CC[C@H](n2cc(-c3nc(N[C@H]4CCN(S(=O)(=O)c5cn(C)cn5)C[C@H]4F)ncc3C(F)(F)F)cn2)CC1` [Example 43, N-((3R,4S)-3-Fluoro-1-((1-methyl-1H-imidazol-4-yl)sulfonyl)piperidin-4-yl)-4-(1-((trans)-4-methoxycyclohexyl)-1H-pyrazol-4-yl)-5-(trifluoromethyl)pyrimidin-2-amine], the concentration for half-maximal inhibition (IC50) is under 50 nM.

In turn, `CNCc1ccc(-n2cc(-c3nc(N[C@H]4CCN(S(=O)(=O)C(C)C)C[C@H]4F)ncc3C#N)cn2)c(Cl)c1` [Example 119, 4-(1-(2-Chloro-4-((methylamino)methyl)phenyl)-1H-pyrazol-4-yl)-2-(((3R,4S)-3-fluoro-1-(isopropylsulfonyl)piperidin-4-yl)amino)pyrimidine-5-carbonitrile] gave an IC50 of under 50 nM.

`CNCc1ccc(-n2cc(-c3nc(NC4CCN(S(C)(=O)=O)CC4)ncc3C(F)(F)F)cn2)c(Cl)c1` [Example 29, 4-(1-(2-Chloro-4-((methylamino)methyl)phenyl)-1H-pyrazol-4-yl)-V-(1-(methylsulfonyl)piperidin-4-yl)-5-(trifluoromethyl)pyrimidin-2-amine] had an IC50 of under 50 nM.

For `CCN1CCN(CCCS(=O)(=O)N2CC[C@H](Nc3ncc(C(F)(F)F)c(-c4cnn(CC(C)(C)O)c4)n3)[C@H](F)C2)CC1` [Example 210, 1-(4-(2-(((3R,45)-1-((3-(4-Ethylpiperazin-1-yl)propyl)sulfonyl)-3-fluoropiperidin-4-yl)amino)-5-(trifluoromethyl)pyrimidin-4-yl)-1H-pyrazol-1-yl)-2-methylpropan-2-ol], the half-inhibitory concentration (IC50) is under 50 nM.

On to `[2H]C([2H])([2H])NCc1ccc(-n2cc(-c3nc(NC4CCN(S(=O)(=O)c5ccn(C)n5)CC4)ncc3C#N)cn2)c(Cl)c1` [Example 142, 4-(1-(2-Chloro-4-(((methyl-d3)amino)methyl)phenyl)-1H-pyrazol-4-yl)-2-((1-((1-methyl-1H-pyrazol-3-yl)sulfonyl)piperidin-4-yl)amino)pyrimidine-5-carbonitrile], for which the IC50 was under 50 nM.

Turning to `CN(C)CCCCS(=O)(=O)N1CCC(Nc2ncc(C(F)(F)F)c(-c3cnn(CC(C)(C)O)c3)n2)CC1` [Example 78, 1-(4-(2-((1-((4-(Dimethylamino)butyl)sulfonyl)piperidin-4-yl)amino)-5-(trifluoromethyl)pyrimidin-4-yl)-1H-pyrazol-1-yl)-2-methylpropan-2-ol], the IC50 is under 50 nM.

Take `CS(=O)(=O)N1CCC(Nc2ncc(C#N)c(-c3cnn(-c4ccc(CN[C@@H]5CCCC[C@H]5CO)cc4Cl)c3)n2)CC1` [Example 288]: the IC50 is under 50 nM.

Take `CCN(CC)CCCS(=O)(=O)N1CC[C@H](Nc2ncc(C(F)(F)F)c(-c3cnn(CC(C)(C)O)c3)n2)[C@H](F)C1` [Example 202, 1-(4-(2-(((3R,4S)-1-((3-(Diethylamino)propyl)sulfonyl)-3-fluoropiperidin-4-yl)amino)-5-(trifluoromethyl)pyrimidin-4-yl)-1H-pyrazol-1-yl)-2-methylpropan-2-ol]: the IC50 was under 50 nM.

Take `CC(C)(O)Cn1cc(-c2nc(N[C@H]3CCN(S(=O)(=O)CCCN4CCC(O)CC4)C[C@H]3F)ncc2C(F)(F)F)cn1` [Example 208, 1-(3-(((3R,4S)-3-Fluoro-4-((4-(1-(2-hydroxy-2-methylpropyl)-1H-pyrazol-4-yl)-5-(trifluoromethyl)pyrimidin-2-yl)amino)piperidin-1-yl)sulfonyl)propyl)piperidin-4-ol]: the IC50 is under 50 nM.

For the compound `CS(=O)(=O)N1CCC(Nc2ncc(Cl)c(-c3cnn(C4CCOCC4)c3)n2)CC1` [Example 22, 5-Chloro-N-(1-(methylsulfonyl)piperidin-4-yl)-4-(1-(tetrahydro-2H-pyran-4-yl)-1H-pyrazol-4-yl)pyrimidin-2-amine], the IC50 is under 50 nM.

In turn, `CN1CCN(CCCS(=O)(=O)N2CCC(Nc3ncc(C(F)(F)F)c(-c4cnn(CC(C)(C)O)c4)n3)CC2)CC1` [Example 68, 2-Methyl-1-(4-(2-((1-((3-(4-methylpiperazin-1-yl)propyl)sulfonyl)piperidin-4-yl)amino)-5-(trifluoromethyl)pyrimidin-4-yl)-1H-pyrazol-1-yl)propan-2-ol] registered an IC50 of under 50 nM.

`COC1CCN(CCCS(=O)(=O)N2CC[C@H](Nc3ncc(C(F)(F)F)c(-c4cnn(CC(C)(C)O)c4)n3)[C@H](F)C2)CC1` [Example 207, 1-(4-(2-(((3R,4S)-3-Fluoro-1-((3-(4-methoxypiperidin-1-yl)propyl)sulfonyl)piperidin-4-yl)amino)-5-(trifluoromethyl)pyrimidin-4-yl)-1H-pyrazol-1-yl)-2-methylpropan-2-ol]: the IC50 is under 50 nM.

In the case of `Cc1cc(CN2CCN(CC3CC3)CC2)ccc1-n1cc(-c2nc(NC3CCN(S(=O)(=O)c4cn(C)cn4)CC3)ncc2Cl)cn1` [Example 246, 5-Chloro-4-(1-(4-((4-(cyclopropylmethyl)piperazin-1-yl)methyl)-2-methylphenyl)-1H-pyrazol-4-yl)-N-(1-((1-methyl-1H-imidazol-4-yl)sulfonyl)piperidin-4-yl)pyrimidin-2-amine], the IC50 is under 50 nM.

On to `CS(=O)(=O)N1CCC(Nc2ncc(C#N)c(-c3cnn(-c4ccc(CN[C@H]5C[C@](C)(O)C5)cc4Cl)c3)n2)CC1` [Example 191, 4-(1-(2-Chloro-4-((((1r,3r)-3-hydroxy-3-methylcyclobutyl)amino)methyl)phenyl)-1H-pyrazol-4-yl)-2-((1-(methylsulfonyl)piperidin-4-yl)amino)pyrimidine-5-carbonitrile], for which the IC50 was under 50 nM.

For `CS(=O)(=O)N1CCCC(Nc2ncc(C(F)(F)F)c(-c3cnn(C4CCOCC4)c3)n2)C1` (racemic) [Example 19, (±)-N-(1-(Methylsulfonyl)piperidin-3-yl)-4-(1-(tetrahydro-2H-pyran-4-yl)-1H-pyrazol-4-yl)-5-(trifluoromethyl)pyrimidin-2-amine], the IC50 lay within 500 to 1000 nM.

In turn, `CCNCc1ccc(-n2cc(-c3nc(NC4CCN(S(C)(=O)=O)CC4)ncc3C#N)cn2)c(Cl)c1` [Example 115, 4-(1-(2-Chloro-4-((ethylamino)methyl)phenyl)-1H-pyrazol-4-yl)-2-((1-(methylsulfonyl)piperidin-4-yl)amino)pyrimidine-5-carbonitrile] yielded an IC50 of under 50 nM.

Consider `CC(C)(O)CCS(=O)(=O)N1CCC(Nc2ncc(C(F)(F)F)c(-c3cnn(CC(C)(C)O)c3)n2)CC1` [Example 94, 4-((4-((4-(1-(2-Hydroxy-2-methylpropyl)-1H-pyrazol-4-yl)-5-(trifluoromethyl)pyrimidin-2-yl)amino)piperidin-1-yl)sulfonyl)-2-methylbutan-2-ol], for which the IC50 is under 50 nM.

`CC(C)(O)Cn1cc(-c2nc(NC3CCN(S(=O)(=O)C4CCC(N5CCCC5)CC4)CC3)ncc2C(F)(F)F)cn1` (single isomer, unassigned) [91 (peak 1), 2-Methyl-1-(4-(2-((1-((4-(pyrrolidin-1-yl)cyclohexyl)sulfonyl)piperidin-4-yl)amino)-5-(trifluoromethyl)pyrimidin-4-yl)-1H-pyrazol-1-yl)propan-2-ol]: the IC50 is under 50 nM.

`CC(C)(O)Cn1cc(-c2nc(NC3CCN(S(=O)(=O)CCN4CCCC4)CC3)ncc2C(F)(F)F)cn1` [Example 82, 2-Methyl-1-(4-(2-((1-((2-(pyrrolidin-1-yl)ethyl)sulfonyl)piperidin-4-yl)amino)-5-(trifluoromethyl)pyrimidin-4-yl)-1H-pyrazol-1-yl)propan-2-ol] came in with an IC50 of under 50 nM.

Compound `CC(C)(O)Cn1cc(-c2nc(NC3CCN(S(=O)(=O)CCCN4CCCC4)CC3)ncc2C(F)(F)F)cn1` [Example 66, 2-Methyl-1-(4-(2-((1-((3-(pyrrolidin-1-yl)propyl)sulfonyl)piperidin-4-yl)amino)-5-(trifluoromethyl)pyrimidin-4-yl)-1H-pyrazol-1-yl)propan-2-ol] registered an IC50 of under 50 nM.

`CNCc1ccc(-n2cc(-c3nc(NC4CCN(S(C)(=O)=O)CC4)ncc3Cl)cn2)c(Cl)c1` [Example 124, 5-Chloro-4-(1-(2-chloro-4-((methylamino)methyl)phenyl)-1H-pyrazol-4-yl)-N-(1-(methylsulfonyl)piperidin-4-yl)pyrimidin-2-amine] showed an IC50 of under 50 nM.

Consider `CO[C@H]1CCN(CCCS(=O)(=O)N2CCC(Nc3ncc(C(F)(F)F)c(-c4cnn(CC(C)(C)O)c4)n3)CC2)C1` [Example 219, (S)-1-(4-(2-((1-((3-(3-Methoxypyrrolidin-1-yl)propyl)sulfonyl)piperidin-4-yl)amino)-5-(trifluoromethyl)pyrimidin-4-yl)-1H-pyrazol-1-yl)-2-methylpropan-2-ol], for which the IC50 was under 50 nM.

The compound `CC(C)(O)Cn1cc(-c2nc(NC3CCN(S(=O)(=O)CCCN4CCC(C#N)CC4)CC3)ncc2C(F)(F)F)cn1` [Example 76, 1-(3-((4-((4-(1-(2-Hydroxy-2-methylpropyl)-1H-pyrazol-4-yl)-5-(trifluoromethyl)pyrimidin-2-yl)amino)piperidin-1-yl)sulfonyl)propyl)piperidine-4-carbonitrile] displayed an IC50 of under 50 nM.

`C[C@@H](O)CNCc1ccc(-n2cc(-c3nc(NC4CCN(S(C)(=O)=O)CC4)ncc3C#N)cn2)c(Cl)c1` [Example 291, (R)-4-(1-(2-Chloro-4-(((2-hydroxypropyl)amino)methyl)phenyl)-1H-pyrazol-4-yl)-2-((1-(methylsulfonyl)piperidin-4-yl)amino)pyrimidine-5-carbonitrile] registered an IC50 of under 50 nM.

Compound `CCN(CC)C1CCC(S(=O)(=O)N2CCC(Nc3ncc(C(F)(F)F)c(-c4cnn(CC(C)(C)O)c4)n3)CC2)CC1` (single isomer, unassigned) [89 (peak 2), 1-(4-(2-((1-((4-(Diethylamino)cyclohexyl)sulfonyl)piperidin-4-yl)amino)-5-(trifluoromethyl)pyrimidin-4-yl)-1H-pyrazol-1-yl)-2-methylpropan-2-ol] showed an IC50 of under 50 nM.
